# According to patent publication US20150209263A1, “Method and Compositions for Oral Hygiene” (Imrex, Inc., priority 2003, published 2015):
# “Also recorded” adds a separate entry of the source.
# Tested on: cats with recalcitrant stomatitis
# Test: Treatment of cats with recalcitrant stomatitis (case reports)
# Type: in vivo
# Conditions: single cat case reports
# Experimental: Several cats experiencing recalcitrant stomatitis were treated using oral hygiene composition of the present invention further comprising emilgase. All compositions comprised 0.05% emilgase. All treatments were 5 mL/500 mL water (10 mL/L rate). If additional water was required after the 500 mL was consumed, plain water was offered. Any unconsumed solution was discarded after 24 hours and fresh solution was mixed.
smiles,measurement,value
CN1CCN(c2c(F)cc3c(=O)c(C(=O)O)cn4c3c2OCN4C)CC1 [Zeniquin],response of stomatitis to treatment,responded well
CC[C@H]1OC(=O)[C@H](C)[C@@H](O[C@H]2C[C@@](C)(OC)[C@@H](O)[C@H](C)O2)[C@H](C)[C@@H](O[C@@H]2O[C@H](C)C[C@H](N(C)C)[C@H]2O)[C@](C)(O)C[C@@H](C)CN(C)[C@H](C)[C@@H](O)[C@]1(C)O [Zithromax],response of stomatitis to treatment,temporary responses; also recorded: did not respond
